Data: ChEMBL document CHEMBL1255415, “In vitro activity of penem-1 in combination with beta-lactams against blaKPC-possessing Klebsiella pneumoniae isolates” (2010)
In brackets after ≈: the same amount, converted by molar mass. Activity calls are given as the source filed them. The calls are words filed in the database; no cut-off is given here.

How the values were obtained:
Klebsiella pneumoniae [1] = assay: Antimicrobial activity against blaKPC-possessing Klebsiella pneumoniae isolates assessed as susceptible isolates in presence of 4 ug/ml by agar dilution method; type: functional
Klebsiella pneumoniae [2] = assay: Inhibition of Beta-lactamase KPC-2 in Klebsiella pneumoniae isolates assessed as reduction in antimicrobial MIC of beta-lactams by agar dilution method relative to untreated control
Klebsiella pneumoniae [3] = assay: Antimicrobial activity against blaKPC-possessing Klebsiella pneumoniae isolates assessed as susceptible isolates by agar dilution method; type: functional
Klebsiella pneumoniae [4] = assay: Antimicrobial activity against blaKPC-possessing Klebsiella pneumoniae isolates in presence of 4 ug/ml by agar dilution method; type: functional
Klebsiella pneumoniae [5] = assay: Antimicrobial activity against blaKPC-possessing Klebsiella pneumoniae isolates by agar dilution method; type: functional

| Compound | Activity (Klebsiella pneumoniae [1]) [%] | Reduction in beta-lactam MIC (qualitative call) (Klebsiella pneumoniae [2]) | Activity (Klebsiella pneumoniae [3]) [%] | MIC50 (Klebsiella pneumoniae [4]) [µg/mL] | MIC90 (Klebsiella pneumoniae [4]) [µg/mL] | MIC50 (Klebsiella pneumoniae [5]) [µg/mL] | MIC90 (Klebsiella pneumoniae [5]) [µg/mL] | inhibition (Klebsiella pneumoniae [2]) |
| --- | --- | --- | --- | --- | --- | --- | --- | --- |
| CCN1CCN(C(=O)N[C@@H](C(=O)N[C@@H]2C(=O)N3[C@@H]2SC(C)(C)[C@@H]3C(=O)O)c2ccccc2)C(=O)C1=O [PIPERACILLIN] | 16.7 | Active | 0 | 64 | 128 | ≥ 512 | ≥ 512 | – |
| CO/N=C(\C(=O)N[C@@H]1C(=O)N2C(C(=O)[O-])=C(C[N+]3(C)CCCC3)CS[C@H]12)c1csc(N)n1 [CEFEPIME] | 88.1 | Active | 7.1 | 2 | 16 | 32 (≈ 66.6 µM) | 128 (≈ 266 µM) | – |
| C[C@H]1[C@H](NC(=O)/C(=N\OC(C)(C)C(=O)O)c2csc(N)n2)C(=O)N1S(=O)(=O)O [AZTREONAM] | 14.3 | – | 0 | 16 | 128 | ≥ 512 | ≥ 512 | Active |
| CO/N=C(\C(=O)N[C@@H]1C(=O)N2C(C(=O)O)=C(COC(C)=O)CS[C@H]12)c1csc(N)n1 [CEFOTAXIME] | 38.1 | Active | 0 | 2 | 4 | 64 (≈ 141 µM) | ≥ 512 | – |
